# In the supplement of paper PMC10307832:
# What was measured:
# Assay in all cases: relative viability (nuclei count vs DMSO), 5 days (fraction); higher = more cells survive
# [1] = compound: COc1cc2ncn(-c3cc(OCc4ccccc4C(F)(F)F)c(C(N)=O)s3)c2cc1OC + CC(=O)c1c(C)c2cnc(Nc3ccc(N4CCNCC4)cn3)nc2n(C2CCCC2)c1=O [Palbociclib] (partner 0.5 µM)
# Procedure, shortened: (§1)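 Lung cancer cell lines in 1536-well plates were dosed by pin tool the day after seeding, either with one drug alone or with a fixed anchor-drug dose plus five library-drug doses (not always all listed) in √10 steps. After 5 days, cells were fixed and their nuclei stained in one step (final 0.05% Triton X-100, 1% formaldehyde, 1 ug/ml Hoechst), then counted on 4× images. Relative viability is the nuclei count in treated wells divided by that in vehicle wells. Values are medians of duplicate plates.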
# [2] = compound: COc1cc2ncn(-c3cc(OCc4ccccc4C(F)(F)F)c(C(N)=O)s3)c2cc1OC + Cc1nc(NC(=O)N2CCC[C@H]2C(N)=O)sc1-c1ccnc(C(C)(C)C(F)(F)F)c1 [Alpelisib] (partner 2 µM)
# Procedure, shortened: as §1
# [3] = compound: COc1cc2ncn(-c3cc(OCc4ccccc4C(F)(F)F)c(C(N)=O)s3)c2cc1OC + CC(C)C[C@H](NC(=O)[C@H](Cc1ccccc1)NC(=O)c1cnccn1)B(O)O [Bortezomib] (partner 0.002 µM)
# Procedure, shortened: as §1
# [4] = compound: COc1cc2ncn(-c3cc(OCc4ccccc4C(F)(F)F)c(C(N)=O)s3)c2cc1OC + Cc1nc(Nc2ncc(C(=O)Nc3c(C)cccc3Cl)s2)cc(N2CCN(CCO)CC2)n1 [Dasatinib] (partner 0.075 µM)
# Procedure, shortened: as §1
Cell Line,relative viability ([1]; first compound 0.05 µM),relative viability ([1]; first compound 0.1581 µM),relative viability ([1]; first compound 0.5 µM),relative viability ([1]; first compound 1.581 µM),relative viability ([1]; first compound 5 µM),relative viability ([2]; first compound 0.05 µM),relative viability ([2]; first compound 0.1581 µM),relative viability ([2]; first compound 0.5 µM),relative viability ([2]; first compound 1.581 µM),relative viability ([2]; first compound 5 µM),relative viability ([3]; first compound 0.05 µM),relative viability ([3]; first compound 0.1581 µM),relative viability ([3]; first compound 0.5 µM),relative viability ([3]; first compound 1.581 µM),relative viability ([3]; first compound 5 µM),relative viability ([4]; first compound 0.05 µM),relative viability ([4]; first compound 0.1581 µM),relative viability ([4]; first compound 0.5 µM),relative viability ([4]; first compound 1.581 µM),relative viability ([4]; first compound 5 µM)
NCI-H441,0.243,0.255,0.172,0.125,0.147,0.771,0.506,0.161,0.177,0.156,0.565,0.463,0.273,0.154,0.176,0.573,0.538,0.265,0.174,0.168
NCI-H1793,0.229,0.357,0.233,0.247,0.177,0.611,0.745,0.394,0.22,0.191,,,,,,0.379,0.382,0.3,0.15,0.141
NCI-H23,0.313,0.408,0.285,0.148,0.121,0.836,0.363,0.326,0.137,0.102,1.14,0.847,0.648,0.132,0.117,0.801,0.636,0.426,0.11,0.0948
HARA,0.224,0.251,0.234,0.173,0.127,0.894,0.764,0.712,0.176,0.0641,1.09,0.986,1.02,0.215,0.0851,0.242,0.299,0.284,0.0989,0.0669
NCI-H1792,0.728,0.631,0.568,0.377,0.332,0.732,0.659,0.501,0.31,0.364,0.958,0.91,0.88,0.423,0.223,0.786,0.757,0.372,0.287,0.25
NCI-H1703,,,,,,0.3,0.368,0.271,0.142,0.12,0.384,0.339,0.172,0.0978,0.173,,,,,
NCI-H2342,0.519,0.509,0.513,0.437,0.422,,,,,,,,,,,0.325,0.354,0.279,0.278,0.237
CAL-12T,0.411,0.422,0.381,0.187,0.148,1.03,0.973,0.513,0.188,0.196,0.944,0.821,0.608,0.242,0.199,0.415,0.249,0.0865,0.105,0.122
NCI-H838,0.255,0.231,0.161,0.111,0.0913,1.25,1.02,0.956,0.36,0.142,0.979,0.776,0.525,0.132,0.0869,0.302,0.291,0.224,0.255,0.156
